From ChEMBL document CHEMBL1159031, “Cytotoxic quassinoids from Cedronia granatensis” (1992)

Key:
Type in all cases: functional
NCI-H226 = assay: Cytotoxicity against human NCI-H226 cells; details: read-out: Log10LC50 (converted)
DMS-114 = assay: Cytotoxicity against human DMS114 cells; details: read-out: Log10LC50 (converted)
OVCAR-3 = assay: Cytotoxicity against human OVCAR-3 cells; details: read-out: Log10LC50 (converted)
HL-60(TB) = assay: Cytotoxicity against human HL-60(TB) cells; details: read-out: Log10LC50 (converted)
[1] = Cytotoxicity against human NCI-H322 cells; details: read-out: Log10LC50 (converted)
KM12 = assay: Cytotoxicity against human KM12 cells; details: read-out: Log10LC50 (converted)
[2] = Cytotoxicity against human RXF631 cells; details: RXF 631, read-out: Log10LC50 (converted)
COLO 205 = assay: Cytotoxicity against human COLO205 cells; details: read-out: Log10LC50 (converted)
CAKI-1 = assay: Cytotoxicity against human Caki1 cells; details: read-out: Log10LC50 (converted)
UACC-257 = assay: Cytotoxicity against human UACC257 cells; details: read-out: Log10LC50 (converted)
SR = assay: Cytotoxicity against human SR cells; details: read-out: Log10LC50 (converted)
HCT-116 = assay: Cytotoxicity against human HCT116 cells; details: read-out: Log10LC50 (converted)
SK-MEL-28 = assay: Cytotoxicity against human SK-MEL-28 cells; details: read-out: Log10LC50 (converted)
IGROV-1 = assay: Cytotoxicity against human IGROV1 cells; details: read-out: Log10LC50 (converted)
SF-268 = assay: Cytotoxicity against human SF268 cells; details: read-out: Log10LC50 (converted)
K562 = assay: Cytotoxicity against human K562 cells; details: read-out: Log10LC50 (converted)
DMS-273 = assay: Cytotoxicity against human DMS273 cells; details: read-out: Log10LC50 (converted)
[3] = Cytotoxicity against human LXFL 529L cells; details: read-out: Log10LC50 (converted)
HOP-92 = assay: Cytotoxicity against human HOP92 cells; details: read-out: Log10LC50 (converted)
SK-MEL-2 = assay: Cytotoxicity against human SK-MEL-2 cells; details: read-out: Log10LC50 (converted)
[4] = Cytotoxicity against human 786-O cells; details: 786-0, read-out: Log10LC50 (converted)
SF-295 = assay: Cytotoxicity against human SF295 cells; details: read-out: Log10LC50 (converted)
SF-539 = assay: Cytotoxicity against human SF539 cells; details: read-out: Log10LC50 (converted)
M14 = assay: Cytotoxicity against human M14 cells; details: read-out: Log10LC50 (converted)
EKVX = assay: Cytotoxicity against human EKVX cells; details: read-out: Log10LC50 (converted)
OVCAR-8 = assay: Cytotoxicity against human OVCAR8 cells; details: read-out: Log10LC50 (converted)
SK-OV-3 = assay: Cytotoxicity against human SKOV3 cells; details: read-out: Log10LC50 (converted)
SNB-75 = assay: Cytotoxicity against human SNB75 cells; details: read-out: Log10LC50 (converted)
SNB-19 = assay: Cytotoxicity against human SNB19 cells; details: read-out: Log10LC50 (converted)
HOP-18 = assay: Cytotoxicity against human HOP18 cells; details: read-out: Log10LC50 (converted)
HCT-15 = assay: Cytotoxicity against human HCT15 cells; details: read-out: Log10LC50 (converted)
ACHN = assay: Cytotoxicity against human ACHN cells; details: read-out: Log10LC50 (converted)
SNB-78 = assay: Cytotoxicity against human SNB78 cells; details: read-out: Log10LC50 (converted)
SK-MEL-5 = assay: Cytotoxicity against human SK-MEL-5 cells; details: read-out: Log10LC50 (converted)
U-251 = assay: Cytotoxicity against human U251 cells; details: read-out: Log10LC50 (converted)
RXF 393 = assay: Cytotoxicity against human RXF393 cells; details: read-out: Log10LC50 (converted)
RPMI-8226 = assay: Cytotoxicity against human RPMI8226 cells; details: read-out: Log10LC50 (converted)
SW-620 = assay: Cytotoxicity against human SW620 cells; details: read-out: Log10LC50 (converted)
OVCAR-5 = assay: Cytotoxicity against human OVCAR5 cells; details: read-out: Log10LC50 (converted)
MOLT-4 = assay: Cytotoxicity against human MOLT4 cells; details: read-out: Log10LC50 (converted)
CCRF-CEM = assay: Cytotoxicity against human CCRF-CEM cells; details: read-out: Log10LC50 (converted)
SN12C = assay: Cytotoxicity against human SN12C cells; details: read-out: Log10LC50 (converted)
NCI-H23 = assay: Cytotoxicity against human NCI-H23 cells; details: read-out: Log10LC50 (converted)
UO-31 = assay: Cytotoxicity against human UO31 cells; details: read-out: Log10LC50 (converted)
XF498 = assay: Cytotoxicity against human XF498 cells; details: read-out: Log10LC50 (converted)
Malme-3M = assay: Cytotoxicity against human MALME-3M cells; details: read-out: Log10LC50 (converted)
HT-29 = assay: Cytotoxicity against human HT-29 cells; details: read-out: Log10LC50 (converted)
DLD-1 = assay: Cytotoxicity against human DLD1 cells; details: read-out: Log10LC50 (converted)
TK-10 = assay: Cytotoxicity against human TK10 cells; details: read-out: Log10LC50 (converted)
HCC 2998 = assay: Cytotoxicity against human HCC2998 cells; details: read-out: Log10LC50 (converted)
KM-20L2 = assay: Cytotoxicity against human KM20L2 cells; details: read-out: Log10LC50 (converted)
M19-MEL = assay: Cytotoxicity against human M19-MEL cells; details: read-out: Log10LC50 (converted)
OVCAR-4 = assay: Cytotoxicity against human OVCAR4 cells; details: read-out: Log10LC50 (converted)
A498 = assay: Cytotoxicity against human A498 cells; details: read-out: Log10LC50 (converted)
LOX IMVI = assay: Cytotoxicity against human LOXIMVI cells; details: read-out: Log10LC50 (converted)
HOP-62 = assay: Cytotoxicity against human HOP62 cells; details: read-out: Log10LC50 (converted)
UACC-62 = assay: Cytotoxicity against human UACC62 cells; details: read-out: Log10LC50 (converted)
NCI-H522 = assay: Cytotoxicity against human NCI-H522 cells; details: read-out: Log10LC50 (converted)
A549 = assay: Cytotoxicity against human A549 cells; details: read-out: Log10LC50 (converted)
NCI-H460 = assay: Cytotoxicity against human NCI-H460 cells; details: read-out: Log10LC50 (converted)

Compound `COC(=O)[C@]12OC[C@]34[C@H]([C@@H](O)[C@@H]1O)[C@@]1(C)C=C5OC(=O)C=C5[C@@H](C)[C@@H]1C[C@H]3OC(=O)[C@H](OC(C)=O)[C@@H]24` [SERGEOLIDE] has a CC50 (NCI-H226) of 0.0661 µM, a CC50 (DMS-114) of 0.0363 µM and a CC50 (OVCAR-3) of 3.98 µM. For the same compound, the CC50 (HL-60(TB)) was 0.0575 µM, the CC50 [1] was 3.98 µM and the CC50 (KM12) was 0.437 µM. For the same compound, the CC50 [2] was 3.72 µM, the CC50 (COLO 205) was 0.0219 µM and the CC50 (CAKI-1) was 3.98 µM. The CC50 (UACC-257) was 0.0589 µM, the CC50 (SR) was 3.98 µM and the CC50 (HCT-116) was 0.129 µM. For the same compound, the CC50 (SK-MEL-28) was 0.12 µM, the CC50 (IGROV-1) was 3.98 µM and the CC50 (SF-268) was 2.09 µM. It also gave a CC50 (K562) of 3.98 µM, a CC50 (DMS-273) of 0.11 µM and a CC50 [3] of 0.0676 µM. The CC50 (HOP-92) was 3.98 µM, the CC50 (SK-MEL-2) was 0.0269 µM and the CC50 [4] was 0.407 µM. The CC50 (SF-295) was 0.38 µM, the CC50 (SF-539) was 0.0257 µM and the CC50 (M14) was 0.0209 µM. For the same compound, the CC50 (EKVX) was 0.891 µM, the CC50 (OVCAR-8) was 0.776 µM and the CC50 (SK-OV-3) was 3.98 µM. It also gave a CC50 (SNB-75) of 0.0389 µM, a CC50 (SNB-19) of 3.98 µM and a CC50 (HOP-18) of 3.98 µM. It also gave a CC50 (HCT-15) of 1.91 µM, a CC50 (ACHN) of 3.39 µM and a CC50 (SNB-78) of 2.51 µM. It also gave a CC50 (SK-MEL-5) of 0.00661 µM, a CC50 (U-251) of 3.98 µM and a CC50 (RXF 393) of 0.0513 µM. The CC50 (RPMI-8226) was 3.98 µM, the CC50 (SW-620) was 3.98 µM and the CC50 (OVCAR-5) was 3.31 µM. For the same compound, the CC50 (MOLT-4) was 3.89 µM, the CC50 (CCRF-CEM) was 3.98 µM and the CC50 (SN12C) was 3.98 µM. For the same compound, the CC50 (NCI-H23) was 0.0708 µM, the CC50 (UO-31) was 2.88 µM and the CC50 (XF498) was 0.0589 µM. For the same compound, the CC50 (Malme-3M) was 0.012 µM, the CC50 (HT-29) was 3.8 µM and the CC50 (DLD-1) was 3.24 µM. The CC50 (TK-10) was 3.98 µM, the CC50 (HCC 2998) was 0.0288 µM and the CC50 (KM-20L2) was 3.98 µM. For the same compound, the CC50 (M19-MEL) was 0.0199 µM, the CC50 (OVCAR-4) was 0.0447 µM and the CC50 (A498) was 0.0575 µM. It also gave a CC50 (LOX IMVI) of 0.288 µM, a CC50 (HOP-62) of 1.91 µM and a CC50 (UACC-62) of 0.0324 µM. For the same compound, the CC50 (NCI-H522) was 0.0158 µM, the CC50 (A549) was 3.98 µM and the CC50 (NCI-H460) was 0.457 µM.

In the case of `COC(=O)[C@@]12OC[C@]34[C@H]([C@@H](O)[C@@H]1O)[C@@]1(C)[C@H](O)C(=O)C=C(C)[C@@H]1C[C@H]3OC(=O)[C@H](OC(C)=O)[C@@H]24` [ISOBRUCEIN B], the CC50 (NCI-H226) is reported as 14.1 µM, the CC50 (DMS-114) is reported as 1.91 µM and the CC50 (OVCAR-3) is reported as 42.7 µM. The CC50 (HL-60(TB)) was 0.347 µM, the CC50 [1] was 42.7 µM and the CC50 (KM12) was 20.9 µM. It also gave a CC50 [2] of 42.7 µM, a CC50 (COLO 205) of 5.75 µM and a CC50 (CAKI-1) of 42.7 µM. It also gave a CC50 (UACC-257) of 20.9 µM, a CC50 (SR) of 42.7 µM and a CC50 (HCT-116) of 18.2 µM. The CC50 (SK-MEL-28) was 3.39 µM, the CC50 (IGROV-1) was 42.7 µM and the CC50 (SF-268) was 40.7 µM. It also gave a CC50 (K562) of 11 µM, a CC50 (DMS-273) of 2.69 µM and a CC50 [3] of 42.7 µM. For the same compound, the CC50 (HOP-92) was 42.7 µM, the CC50 (SK-MEL-2) was 7.08 µM and the CC50 [4] was 33.1 µM. It also gave a CC50 (SF-295) of 32.4 µM, a CC50 (SF-539) of 1.29 µM and a CC50 (M14) of 2.29 µM. For the same compound, the CC50 (EKVX) was 42.7 µM, the CC50 (OVCAR-8) was 21.9 µM and the CC50 (SK-OV-3) was 42.7 µM. The CC50 (SNB-75) was 14.1 µM, the CC50 (SNB-19) was 42.7 µM and the CC50 (HOP-18) was 42.7 µM. It also gave a CC50 (HCT-15) of 33.1 µM, a CC50 (ACHN) of 42.7 µM and a CC50 (SNB-78) of 42.7 µM. It also gave a CC50 (SK-MEL-5) of 2.09 µM, a CC50 (U-251) of 42.7 µM and a CC50 (RXF 393) of 10 µM. For the same compound, the CC50 (RPMI-8226) was 42.7 µM, the CC50 (SW-620) was 39.8 µM and the CC50 (OVCAR-5) was 42.7 µM. For the same compound, the CC50 (MOLT-4) was 42.7 µM, the CC50 (CCRF-CEM) was 42.7 µM and the CC50 (SN12C) was 42.7 µM. The CC50 (NCI-H23) was 3.47 µM, the CC50 (UO-31) was 42.7 µM and the CC50 (XF498) was 12 µM. For the same compound, the CC50 (Malme-3M) was 3.02 µM, the CC50 (HT-29) was 42.7 µM and the CC50 (DLD-1) was 42.7 µM. The CC50 (TK-10) was 42.7 µM, the CC50 (HCC 2998) was 1.58 µM and the CC50 (KM-20L2) was 42.7 µM. It also gave a CC50 (M19-MEL) of 4.79 µM, a CC50 (OVCAR-4) of 11 µM and a CC50 (A498) of 5.75 µM. It also gave a CC50 (LOX IMVI) of 8.51 µM, a CC50 (HOP-62) of 42.7 µM and a CC50 (UACC-62) of 5.37 µM. For the same compound, the CC50 (NCI-H522) was 6.17 µM, the CC50 (A549) was 42.7 µM and the CC50 (NCI-H460) was 14.1 µM.
